Results taken from a melting point compilation (Tetko et al.; mined from patent text by program, amines drawn as free bases though some values may be those of a salt).

| Compound | melting point |
| --- | --- |
| CN1Cc2c(C#CC3(O)CCCC3)ncn2-c2cccc(Cl)c2C1=O | 207 to 208 °C |
| CN(C)CCCN1c2ccccc2C(c2ccccc2Cl)=Nc2cccnc21 | 104 to 106 °C |
| COc1ccc(C(C)NC2=Nc3ccc(Cl)cc3C(=O)N(C)C2)cc1OC (stereo unspecified) | 175 to 178 °C |
| C=CC(CC(O)C(CC1CCCCC1)NC(=O)C(Cc1c[nH]cn1)NC(=O)C(Cc1ccccc1)Cc1ccccc1)C(C)C (stereo unspecified) | 98 °C |
| COc1ccc(CCNc2nc(C)c(CCO)c(=O)n2C)cc1 | 210 °C |
| CCCc1nn(Cc2ccccc2)c(C(N)=O)c1NC(=O)c1cc(S(=O)(=O)N2CCN(C)CC2)ccc1OCC | 182 to 184 °C |
| COC(=O)C1=C(C)Nc2c(c(=O)n(C)c(=O)n2C)C1c1cccc([N+](=O)[O-])c1 (stereo unspecified) | > 230 °C |
| CC(=O)OC1CSC(Oc2cc(-c3ccc(F)nc3)cnc2F)C(OC(C)=O)C1OC(C)=O (stereo unspecified) | 135 to 136 °C |
| Cc1nnc2ccc(-c3ccc(Cl)cc3)cn12 | 192 to 194 °C |
| COc1ccc(-c2ccc(C(=O)NCCOc3ccc(CC(Oc4ccc(C(C)C)cc4)C(=O)O)cc3)cn2)cc1 (stereo unspecified) | 166 to 167 °C |
| Cc1c(NC(=O)CC(C)(C)C)cc2c(c1C)OC(C)(C)C2(O)c1ccc(Br)cc1 (stereo unspecified) | 118 to 119 °C |
| COC(=O)C(C)(C)n1c(=O)[nH]c2ccccc2c1=O | 158 to 159 °C |
| COc1ccccc1NC(=O)Nc1ccc2c(c1)CCN(C(=O)Nc1ccc(OCCO)cc1Cl)C2 | 130 to 135 °C |
| CC(C)(C)OC(=O)N[C@@H](Cc1ccccc1)C[C@H](O)[C@H](Cc1ccccc1)N(Cc1ccccc1)Cc1ccccc1 | 145 to 146 °C |
| CN1CCC(N2C(=O)Nc3ccccc3C2c2ccccc2)CC1 (stereo unspecified) | 252 to 253 °C |
| Nc1ccc(OCc2ccccc2)c(Cl)c1 | 54 °C |
| Cc1ncc(Cl)c(C(=O)Nc2ccn3cc(-c4ccccc4)nc3n2)n1 | > 250 °C |
| COc1cc(C(=O)N2CCN(C(=O)c3cc(OC)c(OC)c(OC)c3)C(COC(=O)N3CCCCC3)C2)cc(OC)c1OC (stereo unspecified) | 147 °C |
| Cn1cc(Cl)c(-n2ccnc2S(N)(=O)=O)n1 | 208 to 210 °C |
| Cc1cc2c(-c3cn(C)c(C(F)(F)F)cc3=O)c(F)cc(Cl)c2o1 | 208 to 211 °C |
| CC(C)(C)OC(=O)NCCS(C)(=O)=O | 85 to 86 °C |
| CC(=Nc1ccc2c(c1)C(=O)c1ccc(N=C(C)N3CCCCC3)cc1C2=O)N1CCCCC1 | 233 to 235 °C |
| C[C@@H](c1ccc(F)cc1)N1CCN(c2cc(Oc3cccc4[nH]c(=O)c(N)nc34)ncn2)CC1 | 294 to 295 °C |
| Cc1cc(N(C)Cc2ccc(-c3ccc(C(F)(F)F)cc3)nc2)ccc1OCC(=O)O | 199 °C |

| Compound | melting point |
| --- | --- |
| O=[N+]([O-])c1cccc(-c2nc3ccc(OC(F)(F)F)cc3[nH]2)c1 | 193 to 195 °C |
| CCOC(=O)C(=NO)c1csc(C)n1 | 90 to 92 °C |
| CC#CCOc1ccc(S(=O)C(C(=O)NO)c2ccc(Cl)cc2)cc1 (stereo unspecified) | 92 °C |
| O=C(NCCN1CCC(O)(c2ccc(Cl)cc2)CC1)c1ccccc1 | 169 °C |
| COC(=O)CN(C)c1nc(-c2ccc(-c3ccccc3)cc2)c(C(=O)OC)s1 | 141 °C |
| O=C(CCC(=O)Oc1ccc([N+](=O)[O-])cc1)Oc1ccc([N+](=O)[O-])cc1 | 176 to 178 °C |
| COc1ccc(NN=C(Sc2ccc(C#N)cc2)C(C)=O)cc1 | 182 to 184 °C |
| Cc1noc2c1C(=O)C(CCCN1CCC(C(=O)c3ccc(F)cc3)CC1)CC2 (stereo unspecified) | 81 to 83 °C |
| C(=C/c1cn(C(c2ccccc2)(c2ccccc2)c2ccccc2)cn1)/CCOCc1ccccc1 | 101 to 104 °C |
| Cc1cc(NC(=O)NN(c2ccccc2)c2cccc(CN)c2)ccc1N1CCCCC1=O | 172 to 173 °C |
| CC(C)c1nn(-c2ccc(Cl)cn2)cc1C=O | 69 to 70 °C |
| NC(=O)c1cn(Cc2ccccc2)c(CO)n1 | 204 to 207 °C |
| CCOP(=O)(/C=C/c1cn(-c2ccccc2)nc1OCc1ccc(OCc2cn(-c3ccccn3)nc2C)c(OC)c1)OCC | 103 to 104 °C |
| CCCCCOc1ccc(CO)cc1OC(C)=O | 35 to 36 °C |
| CC(=O)Nc1c(C)ccc(N)c1C | 195 to 197 °C |
| CC1(C)OC(=O)Nc2ccc(-c3ccc(CC#N)c(F)c3)cc21 | 253 to 256 °C |
| CC(=O)C(=Cc1cc([N+](=O)[O-])cc([N+](=O)[O-])c1)C(C)=O | 101 to 105 °C |
| O=c1c2ccc(F)cc2nc(CSc2ncnc3[nH]cnc23)n1-c1ccccc1Cl | 151 to 154 °C |
| CN[C@@H](C)[C@@H]1CCN(c2c(F)cc3c(=O)[nH]c(=O)n(C4CC4)c3c2C)C1 | > 250 °C |
| CCC(=O)Nc1ccccc1C(F)(F)F | 86 °C |
| CC(C)n1nc(-c2sc(NC(=O)CNCc3cccnc3)nc2-c2ccccc2)ccc1=O | 156 to 158 °C |
| CC(C)(C)OC(=O)c1ccc(C=Cc2cnc3nc(N)nc(N)c3c2)cc1 | > 350 °C |
| Fc1cccc(/C=C/C2=CCN(Cc3c[nH]c4ncccc34)CC2)c1 | 199 to 201 °C |
| c1ccc2c(c1)C1(CO1)c1ccccc1C21CO1 (stereo unspecified) | 119 to 121 °C |

| Compound | melting point |
| --- | --- |
| Cc1cc(O)c(C=O)c(C)c1Cl | 90 to 92 °C |
| NCCc1ccc(CCC(=O)O)cc1 | 270 to 272 °C |
| NC(=O)c1ccc(F)c2c1OCC(N(CCCc1c[nH]c3c(F)cc(F)cc13)C1CCC1)C2 (stereo unspecified) | 136 °C |
| CCCCCCCNC(=O)N(C)c1cccc(-c2ccc(CC(OCC)C(=O)O)cn2)c1 (stereo unspecified) | 140 to 141 °C |
| CC(=O)S[C@@H](CCN1C(=O)CCC1=O)C(=O)O | 110 to 112 °C |
| O=C(O)CCC[C@@H](O)[C@@H](CCc1ccccc1)S(=O)(=O)c1ccccc1 (relative stereo) | 100 to 102 °C |
| COc1ccc(C2CC(OC(C)=O)CCC2[N+](=O)[O-])cc1OC (stereo unspecified) | 108 to 110 °C |
| CC(C)n1nc(-c2nc(Sc3ccc(F)cc3)c(N)nc2-c2ccccc2)ccc1=O | 148 to 150 °C |
| C[C@@H]1CN(C(=O)c2cc3c(C(=O)OC(C)(C)C)ncn3c3ccccc23)C[C@H](C)N1 | 233 to 234 °C |
| O=S(=O)(c1ccccc1)c1ncc(C(F)(F)F)cc1Cl | 86 to 87 °C |
| CCCCCCN1C(=O)C(=CC(=O)O)SC1=Nc1cccc2ccccc12 | 144 to 145 °C |
| COc1cc(C(=O)N(C(C)C)C2CCCCC2)ccc1Cn1c(-c2ccccc2Cl)nc2cccnc21 | 121 to 123 °C |
| CCC(=O)N1CCC(NC(=O)Nc2ccc(Br)cc2)CC1 | 233 to 239 °C |
| COC(=O)c1c(N)n(C)c2ccccc12 | 192 to 196 °C |
| NCCCN1c2ccccc2N=C(c2ccccc2F)c2ccccc21 | 144 to 145 °C |
| CCCCc1c(C(=O)N(C)Cc2ccc3c(Br)c(OCc4nnn[nH]4)ccc3c2)oc2ccccc12 | 180 to 183 °C |
| O=c1c(O)c(-c2ccccc2)oc2cc(O)ccc12 | 128 °C |
| COc1ccc(Oc2ccc(C#CC(C)N(O)C(N)=O)s2)cc1 (stereo unspecified) | 137 to 138 °C |
| Cc1ccc(C2c3c(C)c(NC(=O)c4ccc5c(c4)OCO5)c(C)c(C)c3OC2(C)C)cc1 (stereo unspecified) | 164 to 165 °C |
| CC(COc1ccc(C(N)=O)c(O)c1)NCC(O)COc1cccc2c1CCC(=O)N2 (stereo unspecified) | 239 to 245 °C |
| C=C(C)C(=O)Oc1ccc(S(=O)(=O)ON=C(C#N)c2cccs2)cc1 | 165 to 166 °C |
| Nc1ccc(-c2noc(-c3cnn4c(C(F)F)cc(-c5ccc(C(F)(F)F)c(Cl)c5)nc34)n2)cn1 | 252 °C |
| Cc1cc(-c2ccccc2)nc(SSc2nc(-c3ccccc3)cc(C)c2C#N)c1C#N | 200 to 201 °C |
| O=C1SC(CCCC#Cc2ccc(Cl)cc2)(S(=O)(=O)c2ccc(I)cc2)C(=O)N1Cc1ccc([N+](=O)[O-])cc1 (stereo unspecified) | 172 to 175 °C |

| Compound | melting point |
| --- | --- |
| Nc1nc(OCc2ccccc2)c2ncn(CC(=O)O)c2n1 | 159 to 165 °C |
| CCOC(=O)C1OC1C(=O)NC(CC(C)C)C(OC)c1ccccc1 (stereo unspecified) | 108 to 109 °C |
| OCCCc1cnoc1-c1ccc(OC(F)(F)F)cc1 | 50 to 51 °C |
| CCCCCCOc1ccc(C=CC(C)=CC=CC(=O)O)cc1 | 181 to 185 °C |
| CC(=O)NC(COCc1cc(C)cc(C)c1)Cc1cccc2ccccc12 (stereo unspecified) | 119 to 120 °C |
| COCCOc1ccc(CCCNS(C)(=O)=O)c(Oc2ncc(C(F)(F)F)cc2Cl)c1 | 89 to 90 °C |
| COC(=O)c1cnc2c(c1)CCCCC2 | 129 to 131 °C |
| CN1CCN(C2CCC(Nc3ncc4ncnc(Nc5ccc(F)c(Cl)c5)c4n3)CC2)CC1 (stereo unspecified) | 194 to 196 °C |
| NS(=O)(=O)c1ccc(Br)c(Br)c1 | 169 to 171 °C |
| COC(=O)C(CCN(C(C)C)C(C)C)(CC(=O)N1CCCCC1)c1ccccc1Cl (stereo unspecified) | 104 to 106 °C |
| CC1(C)CC(=C[C@H]2[C@H](C(=O)O)C2(C)C)CC(C)(C)C1 (relative stereo) | 116 °C |
| COc1cc(N2CCN(C3CCN(c4cccc5cccnc45)CC3)CC2)c2ncccc2c1 | 194 to 197 °C |
| Cn1cc(C2c3ccc(Cl)cc3C=Cc3sc(OCCn4ccnc4)nc32)c(=S)[nH]c1=O (stereo unspecified) | 190 to 193 °C |
| O=c1[nH]c2ccc(Cl)cc2n1C1CCCCC1 | 206 to 208 °C |
| CC(C)(C)c1cccc(CC(O)CO)c1OCc1ccccc1 (stereo unspecified) | 79 to 81 °C |
| COc1ccccc1C(=O)Nc1ccc(Cl)cc1 | 56.1 to 58.7 °C |
| CCCCC(=O)c1c(CN(CC)C(C)(C)C)nc2cc(OC)c(OC)cc2c1-c1ccc(OC)c(OC)c1 | 137 to 139 °C |
| CCCNC(=O)c1ccccc1N=C(NC(=O)c1ccccc1)SC | 86 to 89 °C |
| O=C(CCCl)Nc1ccc(C(=O)O)cc1 | 225 °C |
| CSCc1nnnn1C1CCN(c2ccc(N3C[C@H](CNC(C)=O)OC3=O)cc2F)CC1 | 118 to 119 °C |
| Cc1cccc(C(CCC(=O)O)Oc2cc(OCc3cccnc3)ccc2C#N)c1C (racemic) | 187 to 189 °C |
| CON=CC(C)(C#N)NC(=O)C(Oc1ccc2ncc(Br)cc2c1)SC (stereo unspecified) | 138 to 145 °C |
| O=C(CO)c1ccc(Cl)c(Cl)c1 | 115 to 118 °C |
| COC(=O)C(CO)N(Cc1cc(F)ccc1[N+](=O)[O-])S(=O)(=O)c1ccc(OC)cc1 (stereo unspecified) | 83 to 88 °C |
